# Target: T1, NLRP3 (Mus musculus, UniProt Q8R4B8)
# T1 construct: endogenous NLRP3 in lysates of LPS-primed BMDMs
# Assay: DARTS (pronase protection) in BMDM lysates at […]
# Assay type: cell-based
# T1 sequence (Q8R4B8 whole entry): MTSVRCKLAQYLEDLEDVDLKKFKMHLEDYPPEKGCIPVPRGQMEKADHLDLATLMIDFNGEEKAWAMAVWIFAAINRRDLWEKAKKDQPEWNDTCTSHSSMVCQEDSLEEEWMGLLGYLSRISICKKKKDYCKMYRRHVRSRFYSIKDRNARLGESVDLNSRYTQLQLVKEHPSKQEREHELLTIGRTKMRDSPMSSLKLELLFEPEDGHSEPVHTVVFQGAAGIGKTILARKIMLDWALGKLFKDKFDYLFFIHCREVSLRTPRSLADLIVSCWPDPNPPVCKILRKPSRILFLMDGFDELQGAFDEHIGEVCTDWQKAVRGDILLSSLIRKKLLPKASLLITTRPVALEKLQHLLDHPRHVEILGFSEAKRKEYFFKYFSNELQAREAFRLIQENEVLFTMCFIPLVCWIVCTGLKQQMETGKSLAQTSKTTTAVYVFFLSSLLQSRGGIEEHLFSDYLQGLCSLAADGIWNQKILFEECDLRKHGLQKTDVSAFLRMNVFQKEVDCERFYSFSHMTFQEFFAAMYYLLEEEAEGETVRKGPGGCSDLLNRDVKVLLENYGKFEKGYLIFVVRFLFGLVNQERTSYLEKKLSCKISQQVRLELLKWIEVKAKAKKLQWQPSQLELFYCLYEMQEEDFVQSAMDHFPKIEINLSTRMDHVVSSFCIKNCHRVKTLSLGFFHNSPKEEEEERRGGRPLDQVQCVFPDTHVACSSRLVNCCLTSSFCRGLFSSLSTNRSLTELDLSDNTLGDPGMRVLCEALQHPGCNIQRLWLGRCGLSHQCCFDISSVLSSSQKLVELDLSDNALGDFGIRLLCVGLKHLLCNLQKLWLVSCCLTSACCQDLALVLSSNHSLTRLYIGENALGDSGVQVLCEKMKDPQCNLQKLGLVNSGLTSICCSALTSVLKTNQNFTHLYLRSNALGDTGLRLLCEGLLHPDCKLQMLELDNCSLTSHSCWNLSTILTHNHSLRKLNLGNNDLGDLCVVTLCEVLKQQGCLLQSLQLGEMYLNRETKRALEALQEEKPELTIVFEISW
smiles,measurement,value
CC1=C(CC/C(C)=C/CCC2=CC[C@H](C3=CC(=O)O[C@H]3O)O[C@H]2O)C(C)(C)CCC1 [manoalide],DARTS (pronase protection) in BMDM lysates at 10 and 50 μM,Pronase-mediated degradation of NLRP3 is reversed in dose-dependent manner by manoalide.

# From publication PMC8888861, “Inhibition of the NLRP3 Inflammasome Activation by Manoalide Ameliorates Experimental Autoimmune Encephalomyelitis Pathogenesis” (Frontiers in Cell and Developmental Biology, 2022)
